Results from ChEMBL document CHEMBL5380834, “Design, Synthesis, and Biological Evaluation of Androgen Receptor (AR) Antagonist-Heat Shock Protein 90 (Hsp90) Inhibitor Conjugates for Targeted Therapy of Castration-Resistant Prostate Cancer” (J Med Chem, 2023).
pIC50: −log10 of the molar value. The source made the active and inactive calls. The calls are words filed in the database; no cut-off is given here.

Tests used:
[1] = Drug uptake in human 22Rv1 cells at 1 uM measured at 1 to 24 hrs by LC-MS/MS analysis; assay type: ADME, cell-based; conditions: cwr22r, time 1-24 hrs
CWR22R [2] = experiment: Induction of apoptosis in human 22Rv1 cells assessed as early apoptotic cells at 1000 nM measured for 48 hrs by flow cytometry assay (reference value: 4.59%); assay type: functional
CWR22R [3] = experiment: Induction of apoptosis in human 22Rv1 cells assessed as increase in PARP level at 1 uM measured after 48 hrs by Western blot analysis; assay type: functional, cell-based
LNCaP [4] = experiment: Induction of apoptosis in human LNCaP cells assessed as necrotic cells at 100 nM measured for 48 hrs by flow cytometry assay (reference value: 0.35%); assay type: functional
LNCaP [5] = experiment: Induction of apoptosis in human LNCaP cells assessed as increase in caspase-3 level at 1 uM measured after 48 hrs by Western blot analysis; assay type: functional, cell-based
[6] = target: T1, Androgen receptor (Homo sapiens) (UniProt P10275); experiment: Induction of full length AR degradation in human RWPE-1 cells at 10 uM measured for 24 hrs by Western blot analysis; assay type: cell-based
T1 sequence (whole entry): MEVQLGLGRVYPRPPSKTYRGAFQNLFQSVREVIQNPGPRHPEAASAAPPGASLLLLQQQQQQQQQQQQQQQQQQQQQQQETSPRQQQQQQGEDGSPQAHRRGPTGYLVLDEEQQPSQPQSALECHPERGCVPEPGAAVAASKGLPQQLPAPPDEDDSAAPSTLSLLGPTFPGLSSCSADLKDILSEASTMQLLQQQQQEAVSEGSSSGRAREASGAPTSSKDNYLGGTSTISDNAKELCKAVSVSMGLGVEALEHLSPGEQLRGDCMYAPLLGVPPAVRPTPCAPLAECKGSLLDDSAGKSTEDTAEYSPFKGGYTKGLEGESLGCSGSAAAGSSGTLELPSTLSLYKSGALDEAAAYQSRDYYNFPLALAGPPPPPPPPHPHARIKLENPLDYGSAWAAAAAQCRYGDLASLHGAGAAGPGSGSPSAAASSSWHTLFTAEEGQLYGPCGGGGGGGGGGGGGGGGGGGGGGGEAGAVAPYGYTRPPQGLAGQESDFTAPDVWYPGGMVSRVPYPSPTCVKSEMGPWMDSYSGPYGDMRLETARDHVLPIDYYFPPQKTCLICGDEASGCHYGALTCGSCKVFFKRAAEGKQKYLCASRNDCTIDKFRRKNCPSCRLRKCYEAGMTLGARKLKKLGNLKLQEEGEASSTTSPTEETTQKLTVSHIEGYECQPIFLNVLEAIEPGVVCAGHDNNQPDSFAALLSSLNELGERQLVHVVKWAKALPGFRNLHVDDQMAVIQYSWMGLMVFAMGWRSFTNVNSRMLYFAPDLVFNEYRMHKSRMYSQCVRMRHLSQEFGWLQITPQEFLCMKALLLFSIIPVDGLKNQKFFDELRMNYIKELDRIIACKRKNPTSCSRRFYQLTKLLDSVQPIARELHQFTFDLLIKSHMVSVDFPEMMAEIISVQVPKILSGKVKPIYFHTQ

CWR22R [7] = experiment: Induction of apoptosis in human 22Rv1 cells assessed as viable cells at 100 nM measured for 48 hrs by flow cytometry assay (reference value: 91.3%); assay type: functional; conditions: read-out: Activity
LNCaP [8] = experiment: Induction of apoptosis in human LNCaP cells assessed as necrotic cells at 1000 nM measured for 48 hrs by flow cytometry assay (reference value: 0.35%); assay type: functional
LNCaP [9] = experiment: Induction of apoptosis in human LNCaP cells assessed as early apoptotic cells at 100 nM measured for 48 hrs by flow cytometry assay (reference value: 1.48%); assay type: functional
[10] = Toxicity in BALB/c nude mouse xenografted with human 22Rv1 cells assessed as animal weight loss at 5 mg/kg, ip administered once every 4th day for 3 weeks; assay type: organism-based, CWR22R; conditions: in vivo, 504 h
LNCaP [11] = experiment: Induction of apoptosis in human LNCaP cells assessed as increase in PARP level at 1 uM measured after 48 hrs by Western blot analysis; assay type: functional, cell-based
LNCaP [12] = experiment: Induction of apoptosis in human LNCaP cells assessed as viable cells at 1000 nM measured for 48 hrs by flow cytometry assay (reference value: 96.9%); assay type: functional; conditions: read-out: Activity
CWR22R [13] = experiment: Induction of apoptosis in human 22Rv1 cells assessed as necrotic cells at 1000 nM measured for 48 hrs by flow cytometry assay (reference value: 0.19%); assay type: functional
CWR22R [14] = experiment: Induction of apoptosis in human 22Rv1 cells assessed as viable cells at 1000 nM measured for 48 hrs by flow cytometry assay (reference value: 91.3%); assay type: functional; conditions: read-out: Activity
CWR22R [15] = experiment: Induction of apoptosis in human 22Rv1 cells assessed as late apoptotic cells at 1000 nM measured for 48 hrs by flow cytometry assay (reference value: 3.96%); assay type: functional
CWR22R [16] = experiment: Induction of apoptosis in human 22Rv1 cells assessed as early apoptotic cells at 100 nM measured for 48 hrs by flow cytometry assay (reference value: 4.59%); assay type: functional
CWR22R [17] = experiment: Induction of apoptosis in human 22Rv1 cells assessed as increase in caspase-3 level at 1 uM measured after 48 hrs by Western blot analysis; assay type: functional, cell-based
CWR22R [18] = experiment: Induction of cell cycle arrest in human 22Rv1 cells assessed as accumulation of cells at G2/M phase at 100 to 1000 nM measured for 24 hrs by flow cytometry analysis; assay type: functional, cell-based; conditions: dose 100-1000 nM
CWR22R [19] = experiment: Induction of apoptosis in human 22Rv1 cells assessed as late apoptotic cells at 100 nM measured for 48 hrs by flow cytometry assay (reference value: 3.96%); assay type: functional
[20] = test system: Androgen receptor (Homo sapiens), P10275 [UNDEFINED MUTATION]; experiment: Induction of AR-V7 degradation in human 22Rv1 cells measured upto 24 hrs by Western blot analysis; assay type: cell-based; conditions: dose 1000.0 nM
LNCaP [21] = experiment: Downregulation of AR-regulated FKBP5 protein level in human LNCaP cells measured for 48 hrs in presence of AR agonist, R1881 in charcoal stripped serum by Western blot analysis; assay type: functional, cell-based; conditions: dose 300-1000 nM
[22] = target: T1, Androgen receptor (Homo sapiens); experiment: Induction of full length AR degradation in human LNCaP cells assessed as maximum degradation at 100 nM measured after 12 hrs relative to control; assay type: cell-based
LNCaP [23] = experiment: Induction of apoptosis in human LNCaP cells assessed as early apoptotic cells at 1000 nM measured for 48 hrs by flow cytometry assay (reference value: 1.48%); assay type: functional
LNCaP [24] = experiment: Downregulation of AR-regulated PSA protein level in human LNCaP cells measured for 48 hrs in presence of AR agonist, R1881 in charcoal stripped serum by Western blot analysis; assay type: functional, cell-based; conditions: dose 300-1000 nM
LNCaP [25] = experiment: Cytotoxicity against AR-positive human LNCaP cells assessed as inhibition of cell growth incubated for 5 days in presence of AR agonist, R1881 in charcoal stripped serum by WST-1 assay; assay type: functional, cell-based; conditions: 120 h
LNCaP [26] = experiment: Downregulation of AR-regulated TMPRSS2 protein level in human LNCaP cells measured for 48 hrs in presence of AR agonist, R1881 in charcoal stripped serum by Western blot analysis; assay type: functional, cell-based; conditions: dose 300-1000 nM
[27] = Toxicity in BALB/c nude mouse xenografted with human LNCaP cells assessed as animal weight loss at 5 mg/kg, ip administered once every 4th day for 3 weeks; assay type: organism-based; conditions: in vivo, 504 h
LNCaP [28] = experiment: Induction of apoptosis in human LNCaP cells assessed as late apoptotic cells at 1000 nM measured for 48 hrs by flow cytometry assay (reference value: 1.29%); assay type: functional
LNCaP [29] = experiment: Induction of apoptosis in human LNCaP cells assessed as viable cells at 100 nM measured for 48 hrs by flow cytometry assay (reference value: 96.9%); assay type: functional; conditions: read-out: Activity
LNCaP [30] = experiment: Induction of cell cycle arrest in human LNCaP cells assessed as accumulation of cells at G2/M phase at 100 to 1000 nM measured for 24 hrs by flow cytometry analysis; assay type: functional, cell-based; conditions: dose 100-1000 nM
LNCaP [31] = experiment: Induction of apoptosis in human LNCaP cells assessed as late apoptotic cells at 100 nM measured for 48 hrs by flow cytometry assay (reference value: 1.29%); assay type: functional
CWR22R [32] = experiment: Cytotoxicity against human 22Rv1 cells assessed as inhibition of cell growth incubated for 5 days in presence of AR agonist, R1881 by WST-1 assay; assay type: functional, cell-based; conditions: 22Rv1, 120 h
CWR22R [33] = experiment: Induction of apoptosis in human 22Rv1 cells assessed as necrotic cells at 100 nM measured for 48 hrs by flow cytometry assay (reference value: 0.19%); assay type: functional
[34] = Cytotoxicity against human RWPE-1 cells assessed as inhibition of cell growth incubated for 5 days by CCK-8 assay; assay type: toxicity, cell-based
[35] = Drug uptake in human 22Rv1 cells measured after 12 hrs by LC-MS/MS analysis; assay type: ADME, cell-based; conditions: cwr22r, 1 µM
CWR22R [36] = experiment: Antitumor activity against human 22Rv1 cells xenografted in BALB/c nude mouse assessed as downregulation of AR-FL level at 2.5 mg/kg, ip administered once every 4th day for 3 weeks; assay type: functional, organism-based
CWR22R [37] = experiment: Antitumor activity against human 22Rv1 cells xenografted in BALB/c nude mouse assessed as downregulation of AR-V7 level at 2.5 mg/kg, ip administered once every 4th day for 3 weeks; assay type: functional, organism-based
LNCaP [38] = experiment: animal or person; conditions: Mus musculus, po, 504 h, read-out: TGI
Description: Antitumor activity against human LNCaP cells xenografted in BALB/c nude mouse assessed as inhibition of tumor growth at 5 mg/kg, po administered once every 4th day for 3 weeks

For CC(C)c1cc(-c2n[nH]c(=O)n2-c2ccc(CN3CCN(CC4CCN(CC5CCN(c6ncc(C(=O)N[C@H]7CC[C@H](Oc8ccc(C#N)c(Cl)c8)CC7)cn6)CC5)CC4)CC3)cc2)c(O)cc1O, the Drug uptake [1] was “Active”, the Activity (CWR22R [2]) was 13.5% and the Activity (CWR22R [3]) was “Active”. For the same molecule, the Activity (LNCaP [4]) was 0.32%, the Activity (LNCaP [5]) was “Active” and the Activity [6] was “inactive”. For the same molecule, the viability at 0.1 µM (CWR22R [7]) was 80.1%, the Activity (LNCaP [8]) was 1.13% and the Activity (LNCaP [9]) was 4.05%. For the same molecule, the Activity [10] was ~ 10%, the Activity (LNCaP [11]) was “Active” and the viability at 1 µM (LNCaP [12]) was 87.1%. The Activity (CWR22R [13]) was 0.085%, the viability at 1 µM (CWR22R [14]) was 70.3% and the Activity (CWR22R [15]) was 16.1%. For the same molecule, the Activity (CWR22R [16]) was 6.96%, the Activity (CWR22R [17]) was “Active” and the Activity (CWR22R [18]) was “Active”. For the same molecule, the Activity (CWR22R [19]) was 12.8%, the Activity [20] was “Dose-Dependent Effect” and the Activity (LNCaP [21]) was “Dose-Dependent Effect”. For the same molecule, the Activity [22] was greater than 90%, the Activity (LNCaP [23]) was 4.87% and the Activity (LNCaP [24]) was “Dose-Dependent Effect”. For the same molecule, the pIC50 (LNCaP [25]) was 7.48, the Activity (LNCaP [26]) was “Dose-Dependent Effect” and the Activity [27] was 10%. The Activity (LNCaP [28]) was 6.91%, the viability at 0.1 µM (LNCaP [29]) was 91.9% and the Activity (LNCaP [30]) was “Active”. The Activity (LNCaP [31]) was 3.71%, the pIC50 (CWR22R [32]) was 7.57 and the Activity (CWR22R [33]) was 0.066%. For the same molecule, the IC50 at 5 days [34] was 241 nM and the Drug uptake [35] was “Dose-Dependent Effect”.
In the case of CNC(=O)c1ccc(N2C(=S)N(c3ccc(C#N)c(C(F)(F)F)c3)C(=O)C2(C)C)cc1F [ENZALUTAMIDE], the Activity (CWR22R [36]) was “inactive”, the Activity (CWR22R [37]) was “inactive” and the pIC50 (LNCaP [25]) was 7.28. It also gave an Activity [27] of 10%, an inhibition in vivo at 5 mg/kg (LNCaP [38]) of 50% and a pIC50 (CWR22R [32]) of less than 6.00.
